From paper PMC9090415, “Discovery of small molecule inhibitors of Plasmodium falciparum apicoplast DNA polymerase” (Journal of Enzyme Inhibition and Medicinal Chemistry, 2022)

Biological target: T1, bacteriophage T4 DNA polymerase (Enterobacteria phage T4, UniProt P04415)
T1 construct: made in house
T1 sequence (P04415 1-898): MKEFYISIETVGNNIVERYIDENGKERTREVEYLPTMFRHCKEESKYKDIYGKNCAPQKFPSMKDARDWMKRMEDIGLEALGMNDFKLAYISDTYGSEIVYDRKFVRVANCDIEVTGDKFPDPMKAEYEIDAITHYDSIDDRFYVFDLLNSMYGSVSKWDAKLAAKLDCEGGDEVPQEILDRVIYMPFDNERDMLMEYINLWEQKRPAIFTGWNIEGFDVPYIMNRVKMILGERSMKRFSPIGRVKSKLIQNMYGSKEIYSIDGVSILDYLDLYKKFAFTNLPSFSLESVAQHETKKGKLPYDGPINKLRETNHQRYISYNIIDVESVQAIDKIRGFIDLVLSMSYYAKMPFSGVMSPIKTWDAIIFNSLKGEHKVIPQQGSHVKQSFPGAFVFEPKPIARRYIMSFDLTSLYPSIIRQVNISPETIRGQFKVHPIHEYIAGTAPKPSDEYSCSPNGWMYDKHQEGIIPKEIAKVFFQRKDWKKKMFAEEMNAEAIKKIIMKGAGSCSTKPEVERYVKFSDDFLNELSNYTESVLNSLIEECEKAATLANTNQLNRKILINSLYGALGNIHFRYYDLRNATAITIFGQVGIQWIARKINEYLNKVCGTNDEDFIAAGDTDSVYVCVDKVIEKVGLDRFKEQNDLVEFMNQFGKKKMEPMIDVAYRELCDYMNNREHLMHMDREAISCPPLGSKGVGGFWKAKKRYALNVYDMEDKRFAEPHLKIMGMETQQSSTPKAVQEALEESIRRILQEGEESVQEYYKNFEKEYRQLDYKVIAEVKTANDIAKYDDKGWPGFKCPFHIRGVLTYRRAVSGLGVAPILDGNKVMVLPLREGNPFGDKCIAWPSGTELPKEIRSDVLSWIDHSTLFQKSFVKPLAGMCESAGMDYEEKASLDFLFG
Assay: Counter-screen against bacteriophage T4 DNA polymerase
Type: biochemical
Conditions: for % inhibition T4 10' 2.5 / % inhibition T4 10' 5 / % inhibition T4 10' 10 / % inhibition T4 10' 20 / % inhibition T4 10' 40 / % inhibition T4 10' 80: read at 10'
In short: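 IC50 values come from dose-response testing of each compound against T4 DNA polymerase. This B-family polymerase was purified in-house and used as the counter-screen.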

CC(=O)OCC1=C(C(=O)[O-])N2C(=O)[C@@H](NC(=O)Cc3cccs3)[C@H]2SC1.[Na+] [Molecule 73, CC(=O)OCC1=C(C(=O)[O-])N2[C@H](SC1)[C@@H](C2=O)NC(=O)Cc1cccs1.[Na+]]
% inhibition T4 10' 2.5 (DRC-1, concentration 2.5): 11.7205% | % inhibition T4 10' 5 (DRC-1, concentration 5): 17.9504% | % inhibition T4 10' 10 (DRC-1, concentration 10): 24.8784% | % inhibition T4 10' 20 (DRC-1, concentration 20): 32.107% | % inhibition T4 10' 40 (DRC-1, concentration 40): 49.9492% | % inhibition T4 10' 80 (DRC-1, concentration 80): 43.1529% | % inhibition T4 70' 2.5 (DRC-1, read at 70', concentration 2.5): 9.196% | % inhibition T4 70' 5 (DRC-1, read at 70', concentration 5): 11.8887% | % inhibition T4 70' 10 (DRC-1, read at 70', concentration 10): 17.9088% | % inhibition T4 70' 20 (DRC-1, read at 70', concentration 20): 22.6844% | % inhibition T4 70' 40 (DRC-1, read at 70', concentration 40): 42.1653% | % inhibition T4 70' 80 (DRC-1, read at 70', concentration 80): 41.199% | % inhibition T4 130' 2.5 (DRC-1, read at 130', concentration 2.5): 4.91% | % inhibition T4 130' 5 (DRC-1, read at 130', concentration 5): 7.499% | % inhibition T4 130' 10 (DRC-1, read at 130', concentration 10): 13.1805% | % inhibition T4 130' 20 (DRC-1, read at 130', concentration 20): 16.8593% | % inhibition T4 130' 40 (DRC-1, read at 130', concentration 40): 38.0136% | % inhibition T4 130' 80 (DRC-1, read at 130', concentration 80): 33.8147% | % inhibition T4 10' 2.5 (DRC-2, concentration 2.5): 0.14% | % inhibition T4 10' 5 (DRC-2, concentration 5): 0.574% | % inhibition T4 10' 10 (DRC-2, concentration 10): 12% | % inhibition T4 10' 20 (DRC-2, concentration 20): 17% | % inhibition T4 10' 40 (DRC-2, concentration 40): 26% | % inhibition T4 10' 80 (DRC-2, concentration 80): 36% | % inhibition T4 40' 2.5 (DRC-2, read at 40', concentration 2.5): 0.442% | % inhibition T4 40' 5 (DRC-2, read at 40', concentration 5): 0.491% | % inhibition T4 40' 10 (DRC-2, read at 40', concentration 10): 11% | % inhibition T4 40' 20 (DRC-2, read at 40', concentration 20): 17% | % inhibition T4 40' 40 (DRC-2, read at 40', concentration 40): 25% | % inhibition T4 40' 80 (DRC-2, read at 40', concentration 80): 42% | % inhibition T4 90' 2.5 (DRC-2, read at 90', concentration 2.5): 1.28% | % inhibition T4 90' 10 (DRC-2, read at 90', concentration 10): 10% | % inhibition T4 90' 20 (DRC-2, read at 90', concentration 20): 17% | % inhibition T4 90' 40 (DRC-2, read at 90', concentration 40): 23% | % inhibition T4 90' 80 (DRC-2, read at 90', concentration 80): 41% | % inhibition T4 180' 2.5 (DRC-2, read at 180', concentration 2.5): 0.485% | % inhibition T4 180' 5 (DRC-2, read at 180', concentration 5): -2.85% | % inhibition T4 180' 10 (DRC-2, read at 180', concentration 10): 6.41% | % inhibition T4 180' 20 (DRC-2, read at 180', concentration 20): 14% | % inhibition T4 180' 40 (DRC-2, read at 180', concentration 40): 20% | % inhibition T4 180' 80 (DRC-2, read at 180', concentration 80): 41%

CC(NC(=O)Cc1cc(=O)[nH]c(SCc2cccc(Cl)c2)n1)c1ccccc1 (stereo not drawn) [Molecule 67, O=C(NC(c1ccccc1)C)Cc1nc(SCc2cccc(c2)Cl)[nH]c(=O)c1]
% inhibition T4 10' (DRC-2, concentration 10): 19% | % inhibition T4 10' (DRC-2, concentration 20): 18% | % inhibition T4 10' (DRC-2, concentration 80): 31% | % inhibition T4 40' (DRC-2, concentration 2.5): -9% | % inhibition T4 40' (DRC-2, concentration 10): 19% | % inhibition T4 40' (DRC-2, concentration 20): 19% | % inhibition T4 40' (DRC-2, concentration 40): 31% | % inhibition T4 90' (DRC-2, concentration 2.5): -9% | % inhibition T4 90' (DRC-2, concentration 10): 18% | % inhibition T4 90' (DRC-2, concentration 20): 18%

CC(=O)c1cc2c(N)c(/C(N)=N/C#N)sc2nc1C [KU0015866]
% inhibition T4 10' (DRC-2, concentration 2.5): -16% | % inhibition T4 10' (DRC-2, concentration 5): -17% | % inhibition T4 10' (DRC-2, concentration 10): -18% | % inhibition T4 10' (DRC-2, concentration 20): -17% | % inhibition T4 10' (DRC-2, concentration 40): -11% | % inhibition T4 10' (DRC-2, concentration 80): -21% | % inhibition T4 40' (DRC-2, concentration 2.5): -16% | % inhibition T4 40' (DRC-2, concentration 5): -17% | % inhibition T4 40' (DRC-2, concentration 10): -18% | % inhibition T4 40' (DRC-2, concentration 20): -17% | % inhibition T4 40' (DRC-2, concentration 40): -11% | % inhibition T4 40' (DRC-2, concentration 80): -21% | % inhibition T4 90' (DRC-2, concentration 5): -16% | % inhibition T4 90' (DRC-2, concentration 10): -18% | % inhibition T4 90' (DRC-2, concentration 20): -18% | % inhibition T4 90' (DRC-2, concentration 40): -11% | % inhibition T4 90' (DRC-2, concentration 80): -20% | % inhibition T4 180' (DRC-2, concentration 2.5): -20% | % inhibition T4 180' (DRC-2, concentration 5): -23% | % inhibition T4 180' (DRC-2, concentration 20): -23% | % inhibition T4 180' (DRC-2, concentration 40): -16%
